Test results from ChEMBL document CHEMBL1152874, “Synthesis of sulfonyl curcumin mimics exerting a vasodilatation effect on the basilar artery of rabbits” (Bioorg Med Chem Lett, 2009).

Columns and labels:
[1] = Vasodilation activity against depolarization-induced contraction in anaesthetized white rabbit basilar artery at 10 uM; format: functional, tissue-based; conditions: Oryctolagus cuniculus
[2] = Vasodilation activity against depolarization-induced contraction in anaesthetized white rabbit basilar artery; format: functional, tissue-based, Oryctolagus cuniculus

Row | SMILES | Activity [1] [%] | EC50 [2] [µM]
1 | COc1ccc(S(=O)(=O)Nc2cccc(C(=O)/C=C/c3ccc(O)c(OC)c3)c2)cc1 | 26.4 | 
2 | COc1cc(/C=C/C(=O)c2cccc(NC(C)=O)c2)ccc1O | 20.6 | 
3 | COc1cc(/C=C/C(=O)c2cccc(NC(=O)c3ccc(Cl)cc3Cl)c2)ccc1O | 27.9 | 
4 | COc1cc(/C=C/C(=O)c2cccc(NS(=O)(=O)c3cccc(C(F)(F)F)c3)c2)ccc1O | 52.3 | 
5 | COc1cc(/C=C/C(=O)c2cccc(NC(=O)C(C)C)c2)ccc1O | 22.5 | 
6 | CCCS(=O)(=O)Nc1cccc(C(=O)/C=C/c2ccc(O)c(OC)c2)c1 | 42.3 | 
7 | COc1cc(/C=C/C(=O)c2cccc(NS(=O)(=O)c3ccc(F)cc3)c2)ccc1O | 71.8 | 
8 | COc1cc(/C=C/C(=O)c2cccc(NS(=O)(=O)c3cccs3)c2)ccc1O | 36.1 | 
9 | COc1cc(/C=C/C(=O)c2cccc(NS(=O)(=O)c3ccc(Cl)c(Cl)c3)c2)ccc1O | 30.2 | 
10 | COc1cc(/C=C/C(=O)c2cccc(NS(=O)(=O)c3c(Cl)cccc3Cl)c2)ccc1O | 99.4 | 2.78
11 | COc1cc(/C=C/C(=O)c2cccc(N)c2)ccc1O | 8.3 | 
12 | COc1cc(/C=C/C(=O)c2cccc(NS(=O)(=O)c3ccc(C(F)(F)F)cc3)c2)ccc1O | 65.8 | 
13 | COc1cc(/C=C/C(=O)c2cccc(NS(=O)(=O)c3ccc(OC(F)(F)F)cc3)c2)ccc1O | 76.7 | 
14 | COc1cc(/C=C/C(=O)c2cccc(NS(C)(=O)=O)c2)ccc1O | 4.2 | 
15 | CCCC(=O)Nc1cccc(C(=O)/C=C/c2ccc(O)c(OC)c2)c1 | 32.3 | 
16 | COc1cc(/C=C/C(=O)c2cccc(NS(=O)(=O)c3cc(Cl)cc(Cl)c3)c2)ccc1O | 37.3 | 
17 | COc1cc(/C=C/C(=O)CC(=O)/C=C/c2ccc(O)c(OC)c2)ccc1O [CURCUMIN] | 58.4 | 7.48
18 | COc1cc(/C=C/C(=O)c2cccc(NS(=O)(=O)C(C)C)c2)ccc1O | 8.4 | 
19 | COc1cc(/C=C/C(=O)c2cccc(NC(=O)c3cccs3)c2)ccc1O | 27.1 | 
20 | COc1cc(/C=C/C(=O)c2cccc(NS(=O)(=O)c3ccccc3)c2)ccc1O | 40.4 | 
21 | COc1cc(/C=C/C(=O)c2cccc(NS(=O)(=O)c3ccc(Cl)cc3)c2)ccc1O | 93.4 | 5.58
22 | COc1cc(/C=C/C(=O)c2cccc(NC(=O)c3ccco3)c2)ccc1O | 41.7 | 
23 | COc1cc(/C=C/C(=O)c2cccc(NS(=O)(=O)c3ccc(Cl)cc3Cl)c2)ccc1O | 4.2 | 
